{"source": "patent US11129867B2", "about": "“Method of treating cancer cells” (priority 2017, dated 2021)", "key": {"A549": {"system": "A549", "assay": "Time-lapse live cell imaging, A549", "assay_type": "cell-based", "conditions": "A549, unbound TMR-GBP removed, imaged at 15 minutes interval for 16 hours, FIG. 4", "description": "Time-Lapse Live Cell Imaging\nIn order to monitor cell morphology and the stability of TMR-GBP, cells were incubated in 35 mm dish or 4 well dish at 37° C. overnight. Replaced the culture medium with CO2-independent medium with supplement of 10% fetal bovine serum (FBS) and 1% penicillin-streptomycin, cells were treated with reagent (TMR, GBP, TMR-GBP) for the time according to the experiment and subjected to time-lapse live cell imaging. Cells were maintained on the microscope stage incubator at 37° C. Multiple-positional time-lapse imaging was performed using an automated Leica DMI6000 inverted microscope equipped with an HCX PL FL 20λ/NA0.4 objective and Andor Luca R EMCCD camera. Images of cells were taken at different interval time and analyzed by MetaMorph software."}, "Ca922 cells": {"system": "Ca922 cells", "assay": "WST-8 cell viability assay, Ca922", "assay_type": "cell-based, human", "conditions": "for cytotoxicity (cell viability): 48 hours", "description": "(§1) Human oral squamous cell carcinoma (OSCC) cell lines, Ca922, OSC20, OECM-1, OC3, CGHNC9, HSC3, plus A549, MDA-MB-231, MCF7, Huh7, HeLa-Kyoto, Detroit 562, H520, H2170, and 293T cells were used in this study. Ca922, CGHNC9, MDA-MB-231, MCF7, Huh7, HeLa-Kyoto, Detroit 562, and 293T cells were all cultured in high-glucose Dulbecco's Modified Eagle Medium (DMEM). OSC20 and HSC3 cells were cultured in Dulbecco's Modified of Eagle's Medium/Ham's F-12 50/50 Mix (1:1). OECM-1, A549, H520, and H2170 cells were grown in RPMI-1640 medium. All culture media were supplemented with 10% fetal bovine serum (FBS) and 1% penicillin-streptomycin. OC3 cells were cultured in 1:1 DMEM/KSFM (keratinocyte serum-free medium) with supplied supplement of Bovine pituitary extract (BPE) and epidermal growth factor (EGF) followed by instruction. All the cells in this study were maintained at 37° C. in humidified atmosphere containing 5% CO2.\n(§2) WST-8 [2-(2-methoxy-4-nitrophenyl)-3-(4-nitrophenyl)-5-(2,4-disulfophenyl)-2H-tetrazolium, monosodium salt] cell viability assay\n(§3) Cells were seeded into 96 well plate and incubated at 37° C. overnight. Endpoint measures of TMR-GBP or drugs were performed by water soluble tetrazolium salt (WST-8)-based colorimetric assay in triplicate which measures the metabolic conversion of WST-8 into formazan by mitochondrial dehydrogenases present in viable cells. The amount of formazan produced is proportional to the number of live cells and is expressed as cellular viability. When time was up, media were removed and supplemented with WST-8 cell viability reagent-contained cell culture medium (1:10) and incubated at 37° C. for 2 hours. Besides, three wells with WST-8-dissolved medium only (without cells) were reserved as a background control. Cell viability was measured at the absorbance of 450/655 nm wavelength by ELISA reader."}, "MCF7": {"system": "MCF7", "assay": "WST-8 cell viability assay, MCF7", "assay_type": "cell-based", "conditions": "MCF7 (breast cancer), different concentrations, 48 hours, FIG. 3", "description": "as §1, §2\n(§4) Cells were seeded into 96 well plate and incubated at 37° C. overnight. […] The amount of formazan produced is proportional to the number of live cells and is expressed as cellular viability. […] Cell viability was measured at the absorbance of 450/655 nm wavelength by ELISA reader."}, "[1]": {"system": "mitochondria of Ca922 cells", "assay": "Immunofluorescence staining of TOM20 and cytochrome-c", "assay_type": "cell-based, human", "conditions": "Ca922, different dose, 8 or 24 hours, FIG. 7", "description": "Ca922 cells were treated with different doses of TMR-GBP for 8 or 24 hours and then fixed with 4% formaldehyde. Representative images showing the staining of mitochondria marker TOM20 and cytochrome-c. Scale bar indicates 10 μm.\nImmunofluorescence Staining\nCells grown on coverslips were washed with 1×PBS and fixed by PTEMF buffer (20 mM PIPES pH 6.8, 0.2% Triton X-100, 10 mM EGTA, 1 mM MgCl2, and 4% formaldehyde) or 4% paraformaldehyde for 10 minutes at room temperature. Then, fixation buffer was replaced with 1×PBST and the cells were washed with 1×PBST for another 10 minutes at room temperature. Coverslips were washed with 1×PBST twice gently and incubated with primary antibodies at room temperature for 1 hour. Next, washed with PBST for three times (2, 2, 5 minutes). Afterwards, coverslips were cultured in Alex Fluor-conjugated secondary antibodies and DAPI at room temperature for 30 minutes, washed three times (2, 2, 5 minutes), rinsed with ddH2O and mounted with mounting medium. Antibodies concentration used in this analysis is 1:1000 dilution. Images were acquired with specific fluorescence wavelength by Leica DMI6000 inverted microscope equipped with HCX PL FL 100λ/NA1.40 objective and EMCCD camera. All images were analyzed by MetaMorph software."}, "Detroit 562": {"system": "Detroit 562", "assay": "WST-8 cell viability assay, Detroit 562", "assay_type": "cell-based", "conditions": "Detroit 562 (pharynx cancer), different concentrations, 48 hours, FIG. 5", "description": "as §1, §2, §3"}, "HeLa-Kyoto": {"system": "HeLa-Kyoto", "assay": "WST-8 cell viability assay, HeLa-Kyoto", "assay_type": "cell-based", "conditions": "HeLa-Kyoto (cervical cancer), different concentrations, 48 hours, FIG. 3", "description": "as §1, §2, §4"}, "293T": {"system": "293T", "assay": "WST-8 cell viability assay, 293T", "assay_type": "cell-based", "conditions": "293T (embryonic kidney), different concentrations, 48 hours, FIG. 3", "description": "as §1, §2, §4"}}, "note": "Where a SMILES comes first, the peptide text is derived from it. The star is where a group is joined. X1 = CN(C)c1ccc2c(-c3ccc(C(=O)*)cc3C(=O)[O-])c3ccc(=[N+](C)C)cc-3oc2c1"}
{"smiles": "CN(C)c1ccc2c(-c3ccc(C(=O)N[C@@H](CC(N)=O)C(=O)N[C@@H](Cc4ccc(O)cc4)C(=O)N[C@@H](CCCNC(=N)N)C(=O)N[C@@H](Cc4c[nH]c5ccccc45)C(=O)N[C@@H](CCCNC(=N)N)C(=O)N[C@@H](CS)C(=O)N[C@@H](CCCCN)C(=O)N[C@@H](CC(N)=O)C(=O)N[C@@H](CCC(N)=O)C(=O)N[C@@H](CC(N)=O)C(=O)O)cc3C(=O)[O-])c3ccc(=[N+](C)C)cc-3oc2c1", "note": "[TMR-GBP] (X1-NYRWRCKNQN-OH; N-terminus and C-terminus assumed)", "values": [{"measurement": "cell death by time-lapse microscopy", "setting": "A549", "result": "still alive after long-term TMR-GBP treatment"}, {"measurement": "cytotoxicity (cell viability)", "setting": "Ca922 cells; Ca922 (oral cancer), different concentrations, FIG. 5", "result": "could induce cytotoxicity"}, {"measurement": "TMR-GBP induced cytotoxicity after NAC pretreatment", "setting": "Ca922 cells; Ca922, NAC pretreated 2 hours, then TMR-GBP 0, 12.5, 25 or 50 μM for 48 hours, FIG. 8B", "result": "partially suppressed by NAC"}, {"measurement": "TMR-GBP induced cytotoxicity, dependence on calcium", "setting": "Ca922 cells; Ca922, calcium chelators BAPTA-AM, EGTA pretreated 2 hours, then TMR-GBP 48 hours, FIG. 8B", "result": "independent of calcium release"}, {"measurement": "cytotoxicity (cell viability)", "setting": "Ca922 cells; Ca922 cells, 50 μM, FIG. 1", "result": "could induce cytotoxicity"}, {"measurement": "cell viability", "setting": "MCF7", "result": "not markedly affected"}, {"measurement": "cytochrome-c release", "setting": "[1]", "result": "Cytochrome-c release upon TMR-GBP treatment was also detected"}, {"measurement": "morphology of mitochondria (TOM20)", "setting": "[1]", "result": "became fragmented when the concentration of TMR-GBP was increased or the treatment time was extended"}, {"measurement": "cytotoxicity (cell viability)", "setting": "Detroit 562", "result": "could induce cytotoxicity"}, {"measurement": "cell viability", "setting": "HeLa-Kyoto", "result": "not markedly affected"}, {"measurement": "cell viability", "setting": "293T", "result": "not markedly affected"}]}
